Like-named read-outs stand apart in the source and are kept apart here.
How the values were obtained:
CDK10/Cyclin L2 = CDK10/Cyclin L2 (Homo sapiens, UniProt Q15131); assay: NanoBRET live-cell target engagement, CDK10-NanoLuc/Cyclin L2 in HEK-293; settings: read-out: CDK10/L2 Inhibition at 10µM (%), 10µM
CDK8/Cyclin C = CDK8/Cyclin C (Homo sapiens, UniProt P49336); assay: NanoBRET live-cell target engagement, NanoLuc-CDK8/Cyclin C in HEK-293; type: binding; settings: 10µM, read-out: CDK8/C Inhibition at 10µM (%)
CDK13/Cyclin K = CDK13/Cyclin K (Homo sapiens, UniProt Q14004); assay: NanoBRET live-cell target engagement, CDK13-NanoLuc/Cyclin K in HEK-293; type: binding; settings: 10µM, read-out: CDK13/K Inhibition at 10µM (%)
Sequence of CDK13/Cyclin K (O75909 whole entry): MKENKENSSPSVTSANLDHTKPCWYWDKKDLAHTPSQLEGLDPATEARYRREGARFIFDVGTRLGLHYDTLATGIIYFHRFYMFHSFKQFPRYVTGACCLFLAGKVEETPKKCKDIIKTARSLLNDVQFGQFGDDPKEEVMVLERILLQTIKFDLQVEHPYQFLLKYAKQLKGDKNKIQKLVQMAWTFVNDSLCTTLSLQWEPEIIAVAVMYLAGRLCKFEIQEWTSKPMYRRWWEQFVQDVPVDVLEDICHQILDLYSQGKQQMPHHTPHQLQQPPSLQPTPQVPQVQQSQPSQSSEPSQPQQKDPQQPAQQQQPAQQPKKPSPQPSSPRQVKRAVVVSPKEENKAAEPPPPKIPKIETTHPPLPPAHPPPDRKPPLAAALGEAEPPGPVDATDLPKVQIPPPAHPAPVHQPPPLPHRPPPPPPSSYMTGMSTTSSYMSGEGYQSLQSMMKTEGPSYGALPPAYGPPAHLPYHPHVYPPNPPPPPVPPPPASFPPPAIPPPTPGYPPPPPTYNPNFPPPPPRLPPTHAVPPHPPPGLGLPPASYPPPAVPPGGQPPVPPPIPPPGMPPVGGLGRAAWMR
Sequence of CDK13/Cyclin K (Q14004 other isoform, or with tags, fused parts or gaps): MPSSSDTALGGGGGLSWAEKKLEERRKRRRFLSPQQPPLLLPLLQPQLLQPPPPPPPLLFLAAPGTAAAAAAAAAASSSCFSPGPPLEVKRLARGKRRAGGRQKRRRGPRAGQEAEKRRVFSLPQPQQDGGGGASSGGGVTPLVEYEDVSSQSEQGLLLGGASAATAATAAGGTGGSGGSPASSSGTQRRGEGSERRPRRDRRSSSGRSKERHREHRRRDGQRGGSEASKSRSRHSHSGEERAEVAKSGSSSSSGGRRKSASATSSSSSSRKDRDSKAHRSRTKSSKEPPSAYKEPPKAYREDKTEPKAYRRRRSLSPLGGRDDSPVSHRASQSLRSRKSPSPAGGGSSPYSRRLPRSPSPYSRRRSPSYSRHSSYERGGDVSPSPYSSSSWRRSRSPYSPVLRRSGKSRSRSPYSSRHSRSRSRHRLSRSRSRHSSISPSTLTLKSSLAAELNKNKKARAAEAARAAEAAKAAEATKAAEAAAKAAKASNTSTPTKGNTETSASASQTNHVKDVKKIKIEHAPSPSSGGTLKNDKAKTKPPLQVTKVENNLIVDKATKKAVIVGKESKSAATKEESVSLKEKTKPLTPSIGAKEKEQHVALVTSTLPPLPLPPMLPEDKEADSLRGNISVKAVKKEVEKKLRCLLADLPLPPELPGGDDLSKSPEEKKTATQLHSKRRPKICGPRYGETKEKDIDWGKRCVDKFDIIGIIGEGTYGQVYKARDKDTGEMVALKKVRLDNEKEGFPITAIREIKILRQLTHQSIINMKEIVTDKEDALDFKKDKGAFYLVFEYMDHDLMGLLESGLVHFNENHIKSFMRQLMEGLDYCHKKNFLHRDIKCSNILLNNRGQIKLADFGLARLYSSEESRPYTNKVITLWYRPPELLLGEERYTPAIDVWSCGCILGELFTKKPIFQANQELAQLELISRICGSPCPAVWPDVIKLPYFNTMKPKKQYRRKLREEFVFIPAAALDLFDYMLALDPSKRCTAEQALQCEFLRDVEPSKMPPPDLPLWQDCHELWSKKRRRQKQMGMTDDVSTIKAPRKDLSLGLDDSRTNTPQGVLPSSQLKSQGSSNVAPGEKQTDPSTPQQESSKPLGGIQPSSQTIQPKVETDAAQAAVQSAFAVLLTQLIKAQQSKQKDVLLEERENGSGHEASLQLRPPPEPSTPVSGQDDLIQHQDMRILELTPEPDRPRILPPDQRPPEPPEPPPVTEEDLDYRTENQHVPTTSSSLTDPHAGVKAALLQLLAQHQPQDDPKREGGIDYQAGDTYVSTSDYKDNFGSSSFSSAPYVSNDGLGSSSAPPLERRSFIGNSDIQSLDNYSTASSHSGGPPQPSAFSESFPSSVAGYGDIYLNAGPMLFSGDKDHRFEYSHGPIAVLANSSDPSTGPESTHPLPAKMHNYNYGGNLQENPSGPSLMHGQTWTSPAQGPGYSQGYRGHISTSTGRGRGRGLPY

CDK19/Cyclin C = CDK19/Cyclin C (Homo sapiens, UniProt Q9BWU1); assay: NanoBRET live-cell target engagement, NanoLuc-CDK19/Cyclin C in HEK-293; settings: read-out: CDK19/C Inhibition at 10µM (%), 10µM
CDK11B/Cyclin L2 = CDK11B/Cyclin L2 (Homo sapiens, UniProt P21127); assay: NanoBRET live-cell target engagement, CDK11B-NanoLuc/Cyclin L2 in HEK-293; type: binding; settings: 10µM, read-out: CDK11b/L2 Inhibition at 10µM (%)
CDK9/Cyclin K = CDK9/Cyclin K (Homo sapiens, UniProt P50750); assay: NanoBRET live-cell target engagement, NanoLuc-CDK9/Cyclin K in HEK-293; type: binding; settings: 10µM, read-out: CDK9/K Inhibition at 10µM (%)
Sequence of CDK9/Cyclin K (P50750 whole entry): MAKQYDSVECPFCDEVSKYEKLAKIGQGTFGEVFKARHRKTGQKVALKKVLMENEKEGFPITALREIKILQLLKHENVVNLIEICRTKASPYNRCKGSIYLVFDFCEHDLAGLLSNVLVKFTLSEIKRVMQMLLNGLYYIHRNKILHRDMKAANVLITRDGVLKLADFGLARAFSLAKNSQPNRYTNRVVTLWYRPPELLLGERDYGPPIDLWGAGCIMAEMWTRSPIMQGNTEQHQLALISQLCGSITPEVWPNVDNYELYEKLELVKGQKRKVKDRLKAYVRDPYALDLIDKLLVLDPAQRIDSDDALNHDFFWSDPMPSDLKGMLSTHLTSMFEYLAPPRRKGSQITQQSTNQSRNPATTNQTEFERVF
Sequence of CDK9/Cyclin K (O75909 whole entry partner): as the sequence (O75909 whole entry) above

CDK12/Cyclin K = CDK12/Cyclin K (Homo sapiens, UniProt Q9NYV4); assay: NanoBRET live-cell target engagement, CDK12-NanoLuc/Cyclin K in HEK-293; type: binding; settings: 10µM, read-out: CDK12/K Inhibition at 10µM (%)
Sequence of CDK12/Cyclin K (Q9NYV4 1-1481 isoform Q9NYV4-2): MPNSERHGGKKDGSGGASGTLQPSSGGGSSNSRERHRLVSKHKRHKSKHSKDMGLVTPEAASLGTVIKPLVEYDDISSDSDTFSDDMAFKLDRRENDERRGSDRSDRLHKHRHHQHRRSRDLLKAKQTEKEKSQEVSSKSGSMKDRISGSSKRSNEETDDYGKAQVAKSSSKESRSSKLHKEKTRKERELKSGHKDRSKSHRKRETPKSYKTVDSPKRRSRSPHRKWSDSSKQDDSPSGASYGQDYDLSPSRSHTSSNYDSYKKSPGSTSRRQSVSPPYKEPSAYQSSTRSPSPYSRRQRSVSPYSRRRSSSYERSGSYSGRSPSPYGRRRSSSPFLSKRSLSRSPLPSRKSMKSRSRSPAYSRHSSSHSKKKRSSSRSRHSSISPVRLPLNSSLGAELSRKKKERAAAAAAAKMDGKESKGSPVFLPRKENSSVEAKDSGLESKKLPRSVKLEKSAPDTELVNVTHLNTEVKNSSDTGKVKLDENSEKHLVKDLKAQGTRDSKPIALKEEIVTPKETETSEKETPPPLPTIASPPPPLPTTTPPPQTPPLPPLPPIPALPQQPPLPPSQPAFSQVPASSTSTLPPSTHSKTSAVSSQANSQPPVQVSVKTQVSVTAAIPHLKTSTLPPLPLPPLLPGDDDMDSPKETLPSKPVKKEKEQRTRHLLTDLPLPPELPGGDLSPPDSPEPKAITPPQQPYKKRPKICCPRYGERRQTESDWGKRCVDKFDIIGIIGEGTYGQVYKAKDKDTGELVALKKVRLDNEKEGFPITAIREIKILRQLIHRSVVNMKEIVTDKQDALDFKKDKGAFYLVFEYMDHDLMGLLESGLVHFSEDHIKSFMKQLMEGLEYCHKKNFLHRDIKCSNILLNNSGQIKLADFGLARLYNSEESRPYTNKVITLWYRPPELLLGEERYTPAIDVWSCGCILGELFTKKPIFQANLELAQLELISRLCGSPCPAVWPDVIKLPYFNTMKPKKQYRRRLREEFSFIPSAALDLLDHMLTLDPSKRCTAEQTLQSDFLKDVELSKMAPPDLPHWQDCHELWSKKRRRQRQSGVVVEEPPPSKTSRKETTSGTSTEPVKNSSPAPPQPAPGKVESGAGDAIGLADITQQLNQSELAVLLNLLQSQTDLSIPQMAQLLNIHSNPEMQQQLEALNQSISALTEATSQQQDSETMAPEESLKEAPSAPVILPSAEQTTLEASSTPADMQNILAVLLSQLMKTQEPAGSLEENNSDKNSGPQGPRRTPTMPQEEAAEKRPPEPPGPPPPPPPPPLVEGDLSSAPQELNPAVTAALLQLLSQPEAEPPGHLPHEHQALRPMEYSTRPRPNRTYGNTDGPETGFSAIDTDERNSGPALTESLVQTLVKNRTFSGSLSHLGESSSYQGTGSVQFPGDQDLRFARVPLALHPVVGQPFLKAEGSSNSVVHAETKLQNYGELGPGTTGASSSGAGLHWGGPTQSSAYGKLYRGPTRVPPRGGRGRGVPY
Sequence of CDK12/Cyclin K (O75909 whole entry partner): as the sequence (O75909 whole entry) above

CDK7 = CDK7 (Homo sapiens, UniProt P50613); assay: NanoBRET live-cell target engagement, NanoLuc-CDK7 in HEK-293; type: binding; settings: 10µM, read-out: CDK7 Inhibition at 10µM (%)
Sequence of CDK7 (P50613 whole entry): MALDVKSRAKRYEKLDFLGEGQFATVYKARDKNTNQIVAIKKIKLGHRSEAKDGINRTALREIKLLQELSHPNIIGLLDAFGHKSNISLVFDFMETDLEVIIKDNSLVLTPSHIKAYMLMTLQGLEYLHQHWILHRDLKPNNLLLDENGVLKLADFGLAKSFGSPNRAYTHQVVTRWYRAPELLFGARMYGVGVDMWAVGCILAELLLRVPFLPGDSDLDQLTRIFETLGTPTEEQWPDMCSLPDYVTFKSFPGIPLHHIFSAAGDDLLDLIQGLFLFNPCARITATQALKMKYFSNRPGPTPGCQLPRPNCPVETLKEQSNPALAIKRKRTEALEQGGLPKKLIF

CDK11A/Cyclin L2 = target: T1, CDK11A/Cyclin L2 (Homo sapiens, UniProt Q9UQ88); assay: NanoBRET live-cell target engagement, CDK11A-NanoLuc/Cyclin L2 in HEK-293; type: binding; settings: 10µM, read-out: CDK11a/L2 Inhibition at 10µM (%)
T1 sequence (Q9UQ88 1-783): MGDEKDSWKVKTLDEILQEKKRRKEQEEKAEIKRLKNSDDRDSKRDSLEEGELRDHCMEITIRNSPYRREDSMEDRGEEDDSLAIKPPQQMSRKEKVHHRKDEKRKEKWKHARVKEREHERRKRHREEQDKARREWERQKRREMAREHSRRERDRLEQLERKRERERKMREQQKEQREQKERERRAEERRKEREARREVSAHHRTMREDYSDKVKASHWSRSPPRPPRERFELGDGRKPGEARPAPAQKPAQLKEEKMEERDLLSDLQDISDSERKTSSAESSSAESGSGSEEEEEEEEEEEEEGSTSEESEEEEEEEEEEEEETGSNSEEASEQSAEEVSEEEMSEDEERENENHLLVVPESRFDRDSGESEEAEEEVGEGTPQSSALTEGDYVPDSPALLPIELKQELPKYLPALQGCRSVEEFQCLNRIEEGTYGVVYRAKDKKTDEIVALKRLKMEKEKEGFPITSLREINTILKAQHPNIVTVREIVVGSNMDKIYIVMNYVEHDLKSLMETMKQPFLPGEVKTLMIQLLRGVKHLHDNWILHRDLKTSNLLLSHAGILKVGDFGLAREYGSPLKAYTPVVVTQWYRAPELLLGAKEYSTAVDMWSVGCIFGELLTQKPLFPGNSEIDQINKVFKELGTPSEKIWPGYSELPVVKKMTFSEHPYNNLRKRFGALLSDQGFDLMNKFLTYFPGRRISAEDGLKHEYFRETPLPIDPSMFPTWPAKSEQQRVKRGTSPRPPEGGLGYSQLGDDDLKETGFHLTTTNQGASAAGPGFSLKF

CDK5/CDK5R1 = CDK5/CDK5R1 (Homo sapiens, UniProt Q00535); assay: NanoBRET live-cell target engagement, CDK5-NanoLuc/CDK5R1 in HEK-293; type: binding; settings: 10µM, read-out: CDK5/CDK5R1 Inhibition at 10µM (%)
Sequence of CDK5/CDK5R1 (Q00535 whole entry): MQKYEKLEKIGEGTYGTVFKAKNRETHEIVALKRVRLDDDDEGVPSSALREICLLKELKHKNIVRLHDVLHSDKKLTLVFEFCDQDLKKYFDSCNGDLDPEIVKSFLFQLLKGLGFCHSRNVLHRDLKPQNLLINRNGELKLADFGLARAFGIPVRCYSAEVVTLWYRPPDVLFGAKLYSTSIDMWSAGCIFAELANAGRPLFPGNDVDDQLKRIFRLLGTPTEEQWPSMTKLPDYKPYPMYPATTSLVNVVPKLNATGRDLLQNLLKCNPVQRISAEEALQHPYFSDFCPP
Sequence of CDK5/CDK5R1 (Q15078 whole entry partner): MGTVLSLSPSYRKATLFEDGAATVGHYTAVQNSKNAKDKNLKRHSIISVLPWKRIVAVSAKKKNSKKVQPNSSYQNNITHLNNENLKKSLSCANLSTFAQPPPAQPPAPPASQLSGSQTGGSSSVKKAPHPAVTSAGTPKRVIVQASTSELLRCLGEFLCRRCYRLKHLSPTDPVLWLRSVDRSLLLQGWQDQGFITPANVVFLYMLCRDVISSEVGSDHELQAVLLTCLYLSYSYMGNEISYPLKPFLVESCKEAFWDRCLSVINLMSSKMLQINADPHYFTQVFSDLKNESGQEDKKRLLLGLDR

CDK20/Cyclin H = CDK20/Cyclin H (Homo sapiens, UniProt Q8IZL9); assay: NanoBRET live-cell target engagement, NanoLuc-CDK20/Cyclin H in HEK-293; type: binding; settings: 10µM, read-out: CDK20/H Inhibition at 10µM (%)
CDK4/Cyclin D1 = CDK4/Cyclin D1 (Homo sapiens, UniProt P11802); assay: NanoBRET live-cell target engagement, NanoLuc-CDK4/Cyclin D1 in HEK-293; type: binding; settings: 10µM, read-out: CDK4/D1 Inhibition at 10µM (%)

An inhibition at 10 µM (CDK10/Cyclin L2; average of experiments) of 4.1%, an inhibition at 10 µM (CDK10/Cyclin L2; independent experiment 1) of 2.9% and an inhibition at 10 µM (CDK10/Cyclin L2; independent experiment 2) of 5.4% were found for `CN(C)C(=O)c1cc2cnc(Nc3ccc(N4CCNCC4)cn3)nc2n1C1CCCC1` [Ribociclib] in this work. It also gave an inhibition at 10 µM (CDK8/Cyclin C; average of experiments) of 0.6%, an inhibition at 10 µM (CDK8/Cyclin C; independent experiment 1) of 6.2% and an inhibition at 10 µM (CDK8/Cyclin C; independent experiment 2) of -4.9%. It also gave an inhibition at 10 µM (CDK13/Cyclin K; average of experiments) of 2.6%, an inhibition at 10 µM (CDK13/Cyclin K; independent experiment 1) of 8% and an inhibition at 10 µM (CDK13/Cyclin K; independent experiment 2) of -2.8%. The inhibition at 10 µM (CDK19/Cyclin C; average of experiments) was 5.4%, the inhibition at 10 µM (CDK19/Cyclin C; independent experiment 1) was 6% and the inhibition at 10 µM (CDK19/Cyclin C; independent experiment 2) was 4.8%. It also gave an inhibition at 10 µM (CDK11B/Cyclin L2; average of experiments) of 5%, an inhibition at 10 µM (CDK11B/Cyclin L2; independent experiment 1) of 10.6% and an inhibition at 10 µM (CDK11B/Cyclin L2; independent experiment 2) of -0.5%. It also gave an inhibition at 10 µM (CDK9/Cyclin K; average of experiments) of 56.6%, an inhibition at 10 µM (CDK9/Cyclin K; independent experiment 1) of 39% and an inhibition at 10 µM (CDK9/Cyclin K; independent experiment 2) of 74.1%. It also gave an inhibition at 10 µM (CDK12/Cyclin K; average of experiments) of 4.6%, an inhibition at 10 µM (CDK12/Cyclin K; independent experiment 1) of 0% and an inhibition at 10 µM (CDK12/Cyclin K; independent experiment 2) of 9.1%. The inhibition at 10 µM (CDK7; average of experiments) was 14.6%, the inhibition at 10 µM (CDK7; independent experiment 1) was 8.5% and the inhibition at 10 µM (CDK7; independent experiment 2) was 20.7%. It also gave an inhibition at 10 µM (CDK11A/Cyclin L2; average of experiments) of 6.6%, an inhibition at 10 µM (CDK11A/Cyclin L2; independent experiment 1) of 3.3% and an inhibition at 10 µM (CDK11A/Cyclin L2; independent experiment 2) of 9.9%. The inhibition at 10 µM (CDK5/CDK5R1; average of experiments) was -15.5%, the inhibition at 10 µM (CDK5/CDK5R1; independent experiment 1) was -4.5% and the inhibition at 10 µM (CDK5/CDK5R1; independent experiment 2) was -26.5%. For the same compound, the inhibition at 10 µM (CDK20/Cyclin H; independent experiment 1) was 0.5%, the inhibition at 10 µM (CDK20/Cyclin H; independent experiment 2) was 1.2% and the inhibition at 10 µM (CDK4/Cyclin D1; average of experiments) was 92.1%. The inhibition at 10 µM (CDK4/Cyclin D1; independent experiment 1) was 97.2% and the inhibition at 10 µM (CDK4/Cyclin D1; independent experiment 2) was 87%.

From paper PMC7265341, “Quantifying CDK inhibitor selectivity in live cells” (Nature Communications, 2020)
